Here are results for 26 compounds from patent publication US20250313548A1 (Actio Biosciences, Inc., priority 2023, published 2025).

Each structure is given as a SMILES string. A value given as a limit tells only on which side of the number the result lay.

This assay deals with human, KCNT1 (Homo sapiens (Human), UniProt Q5JUK3). Kind of assay: FLIPR Tl/K Flux Assay. Type of assay: cell-based. Particulars: HEK293 cells stably expressing human KCNT1; Tl+ flux stimulated with EC80 of agonist Loxapine. Summed up: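 Inhibition values come from a Hill-equation fit of % inhibition versus log concentration, using normalized fluorescence (Fmax/Fmin) over a 160 s read. The read followed stimulation with Tl+ plus EC80 agonist loxapine after 30 min compound pre-incubation at 25 °C. Cells were KCNT1-expressing HEK293, dye-loaded 1 h in pH 7.4 HEPES/HBSS with 5 mM probenecid.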
human, KCNT1, sequence (Q5JUK3 whole entry): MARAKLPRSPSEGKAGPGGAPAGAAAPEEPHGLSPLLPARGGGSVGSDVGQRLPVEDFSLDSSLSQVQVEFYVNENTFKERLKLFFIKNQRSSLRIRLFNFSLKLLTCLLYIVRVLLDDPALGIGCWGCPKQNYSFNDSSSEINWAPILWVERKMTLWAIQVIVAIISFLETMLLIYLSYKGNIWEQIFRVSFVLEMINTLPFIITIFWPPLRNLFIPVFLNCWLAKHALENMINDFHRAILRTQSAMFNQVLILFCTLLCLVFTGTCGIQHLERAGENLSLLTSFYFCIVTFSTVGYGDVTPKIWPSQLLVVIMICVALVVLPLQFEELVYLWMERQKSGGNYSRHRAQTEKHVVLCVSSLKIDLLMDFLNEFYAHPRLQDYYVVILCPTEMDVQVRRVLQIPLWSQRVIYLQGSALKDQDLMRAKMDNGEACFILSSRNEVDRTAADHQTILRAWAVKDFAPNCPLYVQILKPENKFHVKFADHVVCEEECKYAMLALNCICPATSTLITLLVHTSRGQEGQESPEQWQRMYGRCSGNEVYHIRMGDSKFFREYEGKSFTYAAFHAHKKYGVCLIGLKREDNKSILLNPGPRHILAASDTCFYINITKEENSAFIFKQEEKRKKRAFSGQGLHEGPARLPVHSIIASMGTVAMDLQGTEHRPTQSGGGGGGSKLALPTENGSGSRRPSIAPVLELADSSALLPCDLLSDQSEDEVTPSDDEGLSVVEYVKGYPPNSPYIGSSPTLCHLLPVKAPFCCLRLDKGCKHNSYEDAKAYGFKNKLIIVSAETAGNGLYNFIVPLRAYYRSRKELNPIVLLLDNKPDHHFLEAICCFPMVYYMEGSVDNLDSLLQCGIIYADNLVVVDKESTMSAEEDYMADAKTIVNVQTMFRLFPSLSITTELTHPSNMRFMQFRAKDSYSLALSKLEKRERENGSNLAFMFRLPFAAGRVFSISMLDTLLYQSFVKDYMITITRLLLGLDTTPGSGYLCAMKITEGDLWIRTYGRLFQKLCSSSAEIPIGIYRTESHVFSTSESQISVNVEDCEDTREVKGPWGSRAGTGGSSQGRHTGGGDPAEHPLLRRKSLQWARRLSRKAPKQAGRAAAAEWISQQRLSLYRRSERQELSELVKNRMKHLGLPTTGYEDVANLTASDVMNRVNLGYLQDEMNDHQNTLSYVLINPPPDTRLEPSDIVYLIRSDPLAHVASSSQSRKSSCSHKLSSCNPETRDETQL
`N#Cc1cc(F)cc(C(=O)N[C@H]2CCCCn3nc(-c4ccnc(C(F)(F)F)c4)cc32)c1` [Compound I-319a, (S)-3-Cyano-5-fluoro-N-(2-(2-(trifluoromethyl)pyridin-4-yl)-5,6,7,8-tetrahydro-4H-pyrazolo[1,5-a]azepin-4-yl)benzamide] registered an IC50 below 250 nM.
`O=C(N[C@H]1CCCn2nc(-c3ccnc(C(F)(F)F)c3)cc21)c1ccnc(OC(F)(F)F)c1` [Compound I-213a, (S)-2-(Trifluoromethoxy)-N-(2-(2-(trifluoromethyl)pyridin-4-yl)-4,5,6,7-tetrahydropyrazolo[1,5-a]pyridin-4-yl)isonicotinamide] displayed an IC50 below 250 nM.
With `O=C(N[C@H]1CCn2nc(-c3ccnc(C(F)(F)F)c3)cc21)[C@@H]1C[C@@H]1C(F)(F)F` [I-487^, (1R,2S)-2-(trifluoromethyl)-N—((S)-2-(2-(trifluoromethyl)pyridin-4-yl)-5,6-dihydro-4H-pyrrolo[1,2-b]pyrazol-4-yl)cyclopropane-1-carboxamide], the IC50 was below 250 nM.
Then `O=C(N[C@H]1CCn2nc(-c3ccnc(C(F)(F)F)c3)cc21)C12CC(CC(F)(F)F)(C1)C2` [Compound I-583a, (S)-3-(2,2,2-Trifluoroethyl)-N-(2-(2-(trifluoromethyl)pyridin-4-yl)-5,6-dihydro-4H-pyrrolo[1,2-b]pyrazol-4-yl)bicyclo[1.1.1]pentane-1-carboxamide], with below 250 nM; and `O=C(N[C@H]1CCCc2nc(-c3ccnc(C(F)(F)F)c3)oc21)c1cc(Cl)cc(Cl)c1` [Compound I-185a, (S)-3,5-Dichloro-N-(2-(2-(trifluoromethyl)pyridin-4-yl)-4,5,6,7-tetrahydrobenzo[d]oxazol-7-yl)benzamide], with below 250 nM.
In the case of `O=C(N[C@H]1CCCn2nc(-c3ccnc(C(F)(F)F)c3)cc21)c1cnn2cc(F)ccc12` [Compound I-408a] it was below 250 nM; in that of `O=C(N[C@H]1CCn2nc(-c3ccnc(C(F)(F)F)c3)cc21)c1ccn2nccc2c1` [Compound I-550a, (S)-N-(2-(2-(Trifluoromethyl)pyridin-4-yl)-5,6-dihydro-4H-pyrrolo[1,2-b]pyrazol-4-yl)pyrazolo[1,5-a]pyridine-5-carboxamide], below 250 nM.
In the case of `N#Cc1cccc(C(=O)N[C@H]2CCCc3oc(-c4ccnc(C(F)(F)F)c4)nc32)c1` [Compound I-297a, (S)-3-Cyano-N-(2-(2-(trifluoromethyl)pyridin-4-yl)-4,5,6,7-tetrahydrobenzo[d]oxazol-4-yl)benzamide] it was below 250 nM; in that of `O=C(N[C@H]1CCCn2nc(-c3ccnc(C(F)(F)F)c3)cc21)c1cc2cccnn2c1` [Compound I-442a], below 250 nM; in that of `COc1cc(-c2cc3n(n2)CCC[C@@H]3NC(=O)c2cc(C(F)(F)F)nn2C)ccn1` [Compound I-366a], below 250 nM.
Turning to `O=C(N[C@H]1CCCc2nc(-c3ccnc(C4CC4)c3)oc21)c1cncc(C(F)(F)F)n1` [Compound I-152a, (S)-N-(2-(2-Cyclopropylpyridin-4-yl)-4,5,6,7-tetrahydrobenzo[d]oxazol-7-yl)-6-(trifluoromethyl)pyrazine-2-carboxamide], the IC50 is below 250 nM.
In the case of `COc1cc(-c2cc3n(n2)CCCC[C@@H]3NC(=O)c2cc(C(F)(F)F)nn2C)ccn1` [Compound I-126a, (S)—N-(2-(2-Methoxypyridin-4-yl)-5,6,7,8-tetrahydro-4H-pyrazolo[1,5-a]azepin-4-yl)-1-methyl-3-(trifluoromethyl)-1H-pyrazole-5-carboxamide] it was below 250 nM; in that of `Cc1c(C(F)(F)F)nn(C)c1C(=O)N[C@H]1CCc2nn(-c3ccnc(C(F)(F)F)c3)cc21` [Compound I-386a], above 1000 nM.
In the case of `Cn1nc(C(F)(F)F)cc1C(=O)N[C@H]1CCc2cnc(-c3ccnc(C(F)(F)F)c3)cc21` [Compound I-118a] it was below 250 nM; in that of `COc1cc(C(=O)N[C@H]2CCCn3nc(-c4ccnc(C(F)(F)F)c4)nc32)ccn1` [Compound I-214a, (S)-2-Methoxy-N-(2-(2-(trifluoromethyl)pyridin-4-yl)-5,6,7,8-tetrahydro-[1,2,4]triazolo[1,5-a]pyridin-8-yl)isonicotinamide], below 250 nM; in that of `Cc1cc(C#N)cc(C(=O)N[C@H]2CCn3nc(-c4ccnc(C(F)(F)F)c4)cc32)c1` [Compound I-334a, (S)-3-Cyano-5-methyl-N-(2-(2-(trifluoromethyl)pyridin-4-yl)-5,6-dihydro-4H-pyrrolo[1,2-b]pyrazol-4-yl)benzamide], below 250 nM.
In the case of `Cn1nc(C2CC2)nc1C(=O)N[C@H]1CCCc2oc(-c3ccnc(C4CC4)c3)nc21` [Compound I-223a, (S)-3-Cyclopropyl-N-(2-(2-cyclopropylpyridin-4-yl)-4,5,6,7-tetrahydrobenzo[d]oxazol-4-yl)-1-methyl-1H-1,2,4-triazole-5-carboxamide] it was below 250 nM.
`O=C(N[C@@H]1CCc2nn(-c3ccnc(C(F)(F)F)c3)cc21)C1CCC(F)(F)CC1` [Compound I-106b] showed a half-inhibitory concentration (IC50) above 1000 nM.
In the case of `CCOc1cc(F)cc(C(=O)N[C@H]2CCn3nc(-c4ccnc(C(F)(F)F)c4)cc32)c1` [Compound I-568a, (S)-3-Ethoxy-5-fluoro-N-(2-(2-(trifluoromethyl)pyridin-4-yl)-5,6-dihydro-4H-pyrrolo[1,2-b]pyrazol-4-yl)benzamide] it was below 250 nM; in that of `Cc1nc(C(=O)N[C@H]2CCn3nc(-c4ccnc(C(F)(F)F)c4)cc32)n(C)n1` [Compound I-221a, (S)-1,3-Dimethyl-N-(2-(2-(trifluoromethyl)pyridin-4-yl)-5,6-dihydro-4H-pyrrolo[1,2-b]pyrazol-4-yl)-1H-1,2,4-triazole-5-carboxamide], below 250 nM.
In the case of `O=C(N[C@H]1CCCn2nc(-c3ccnc(C(F)(F)F)c3)cc21)c1cc(F)cc(C2CC2)c1` [Compound I-580a, (S)-3-Cyclopropyl-5-fluoro-N-(2-(2-(trifluoromethyl)pyridin-4-yl)-4,5,6,7-tetrahydropyrazolo[1,5-a]pyridin-4-yl)benzamide] it was below 250 nM; in that of `O=C(N[C@H]1CCCn2nc(-c3ccnc(C(F)(F)F)c3)cc21)c1cnn(C(F)(F)F)c1` [Compound I-399a], below 250 nM.
Then `Cc1nn(C)c(C(=O)N[C@H]2CCCn3nc(-c4ccnc(C(F)(F)F)c4)cc32)c1F` [Compound I-417a], with below 250 nM.
The compound `COc1cc(-c2cc3n(n2)CC[C@@H]3NC(=O)c2cc(C#N)cc(C(F)(F)F)c2)ccn1` [Compound I-285a, (S)-3-Cyano-N-(2-(2-methoxypyridin-4-yl)-5,6-dihydro-4H-pyrrolo[1,2-b]pyrazol-4-yl)-5-(trifluoromethyl)benzamide] returned a half-inhibitory concentration (IC50) below 250 nM.
In the case of `COc1cc(-c2nc3c(o2)CCC[C@@H]3NC(=O)c2cc3cccnn3c2)ccn1` [Compound I-293a, (S)-N-(2-(2-Methoxypyridin-4-yl)-4,5,6,7-tetrahydrobenzo[d]oxazol-4-yl)pyrrolo[1,2-b]pyridazine-6-carboxamide] it was 250 to 500 nM.
`COc1cc(-n2cc3c(n2)CC[C@@H]3NC(=O)c2cc(C(F)(F)F)nn2C)cc(C)n1` [Compound I-336a, (S)-N-(2-(2-Methoxy-6-methylpyridin-4-yl)-2,4,5,6-tetrahydrocyclopenta[c]pyrazol-4-yl)-1-methyl-3-(trifluoromethyl)-1H-pyrazole-5-carboxamide] yielded an IC50 of 500 to 1000 nM.

In general, IC50 refers to the concentration that gives 50% inhibition. A high value points to a need for much substance.
